Our source for the class values is patent US20050197350A1, “Novel quinoline, tetrahydroquinazoline, and pyrimidine derivatives and methods of treatment related to the use thereof” (TAISHO PHARMACEUTICAL CO., LTD., priority 2003, published 2005).

Where two headings read alike, the source gives them in different places.

The test system of this test is MCH receptors. Briefly: MCH receptor activity class (method not given).
[1] abbreviates: MCH receptor activity class 1-3 (percent of control at 10^-7 M or IC50).
Where [2] appears, read: MCH receptor, class by percent of control at 10^-7 M or IC50.
The mark [3] stands for this setting: class by percent of control at 10^-7 M or IC50.
The mark [4] stands for this setting: class by percent of control at 10^−7 M or IC50.
Where [5] appears, read: class 1-3 by percent of control at 10^-7 M or IC50.

With “N-[(cis-4-{[4-(dimethylamino)pyrimidin-2-yl]amino}cyclohexyl)methyl]-N′-(2-ethyl-6-isopropylphenyl)urea [compound 2422]”, the class under setting [1] is listed as 1 (Class 1: The value of percent of control at 10^−7 M was less than 40% or the value of IC50 was less than 50 nM.).

For `CN(C)c1cc(N[C@H]2CC[C@@H](CNC(=O)c3cccc(I)c3)CC2)nc2ccccc12` [compound 185, N-[(cis-4-{[4-(dimethylamino)quinolin-2-yl]amino}cyclohexyl)methyl]-3-iodobenzamide], the class under setting [2] is recorded as 3 (Class 3 The value of percent of control at 10^−7 M was more than 60% or the value of IC50 was more than 200 nM.).

Take `CN(C)c1ccnc(N[C@H]2CC[C@@H](NC(=O)c3cc(F)cc(C(F)(F)F)c3)CC2)n1` [compound 256, N-(cis-4-{[4-(dimethylamino)pyrimidin-2-yl]amino}cyclohexyl)-3-fluoro-5-(trifluoromethyl)benzamide]: the class under setting [3] is 2 (Class 2: The value of percent of control at 10^−7 M was from 40% to 60% or the value of IC′50 was from 50 nM to 200 nM.).

Consider `CCOc1cccc(C(=O)N[C@H]2CC[C@@H](Nc3nc(C)c(C)c(N(C)C)n3)CC2)c1` [compound 2861], for which the class under setting [4] is 1 (Class 1: The value of percent of control at 10^−7 M was less than 40% or the value of IC50 was less than 50 nM.).

Regarding `CN(C)c1nc(N[C@H]2CC[C@@H](NC(=O)c3ccc([N+](=O)[O-])cc3Cl)CC2)nc2c1CCCC2` [compound 538], the class under setting [5] is 3 (Class 3 The value of percent of control at 10^−7 M was more than 60% or the value of IC50 was more than 200 nM.).

With `CN(C)c1cc(N[C@H]2CC[C@@H](CNC(=O)c3cccc(OC(F)(F)F)c3)CC2)nc2ccccc12` [compound 181, N-[(cis-4-{[4-(dimethylamino)quinolin-2-yl]amino}cyclohexyl)methyl]-3-(trifluoromethoxy)benzamide], the class under setting [2] was 3 (Class 3 The value of percent of control at 10^−7 M was more than 60% or the value of IC50 was more than 200 nM.).

For `Cc1cc(N(C)C)nc(N[C@H]2CC[C@@H](NC(=O)c3cccc(F)c3)CC2)n1` [compound 2953, N-(cis-4-{[4-(dimethylamino)-6-methylpyrimidin-2-yl]amino}cyclohexyl)-3-fluorobenzamide], the class under setting [4] is recorded as 2 (Class 2: The value of percent of control at 10^−7 M was from 40% to 60% or the value of IC′50 was from 50 nM to 200 nM.).

Take `COc1cccc(CNC[C@H]2CC[C@@H](Nc3nc4c(c(N(C)C)n3)CCCC4)CC2)c1OC` [compound 1418]: the class under setting [3] is reported as 3 (Class 3 The value of percent of control at 10^−7 M was more than 60% or the value of IC50 was more than 200 nM.).

Turning to `CC(=O)c1cccc(C(=O)N[C@H]2CC[C@@H](Nc3nccc(N(C)C)n3)CC2)c1` [compound 831], under setting [3], the class was 2 (Class 2: The value of percent of control at 10^−7 M was from 40% to 60% or the value of IC′50 was from 50 nM to 200 nM.).

On to `CN(C)c1nc(N[C@H]2CC[C@@H](NC(=S)Nc3ccc(Oc4ccccc4)nc3)CC2)nc2c1CCCC2` [compound 2088], for which the class under setting [3] is reported as 3 (Class 3 The value of percent of control at 10^−7 M was more than 60% or the value of IC50 was more than 200 nM.).

On to `Cc1cc(N[C@H]2CC[C@@H](NC(=O)[C@H](O)c3cccc(Cl)c3)CC2)nc2ccccc12` [Example 2555, (2R)-2-(3-chlorophenyl)-2-hydroxy-N-{cis-4-[(4-methylquinolin-2-yl)amino]cyclohexyl}acetamide], for which the class amounted to 1.

For `COc1cccc(CNC[C@H]2CC[C@@H](Nc3nccc(N(C)C)n3)CC2)c1OC` [compound 1297], the class under setting [3] is 3 (Class 3 The value of percent of control at 10^−7 M was more than 60% or the value of IC50 was more than 200 nM.).

In the case of `CN(C)c1nc(N[C@H]2CC[C@@H](NC(=S)NCc3cccc(F)c3)CC2)nc2c1CCCC2` [compound 2043], the class under setting [2] is recorded as 3 (Class 3 The value of percent of control at 10^−7 M was more than 60% or the value of IC50 was more than 200 nM.).

For the compound `COc1ccc(CNC[C@H]2CC[C@@H](Nc3nccc(N(C)C)n3)CC2)cc1C` [compound 1311], the class under setting [3] is 2 (Class 2: The value of percent of control at 10^−7 M was from 40% to 60% or the value of IC′50 was from 50 nM to 200 nM.).

With `Cc1ccc(C(=O)N[C@H]2CC[C@@H](Nc3nc(C)cc(N(C)C)n3)CC2)cc1` [compound 2985, N-(cis-4-{[4-(dimethylamino)-6-methylpyrimidin-2-yl]amino}cyclohexyl)-4-methylbenzamide], the class under setting [4] is reported as 1 (Class 1: The value of percent of control at 10^−7 M was less than 40% or the value of IC50 was less than 50 nM.).

As to `COc1ccc(CNC[C@H]2CC[C@@H](Nc3nccc(N(C)C)n3)CC2)c(OC)c1C` [compound 1288], the class under setting [3] is recorded as 1 (Class 1: The value of percent of control at 10^−7 M was less than 40% or the value of IC50 was less than 50 nM.).

For the compound `CN(C)c1ccnc(N[C@H]2CC[C@@H](CNC(=O)Nc3ccc(Cl)cc3C(F)(F)F)CC2)n1` [compound 2433], the class under setting [1] was 2 (Class 2: The value of percent of control at 10^−7 M was from 40% to 60% or the value of IC′50 was from 50 nM to 200 nM.).

In the case of `CCCSc1ncccc1C(=O)N[C@H]1CC[C@@H](Nc2nc3c(c(N(C)C)n2)CCCC3)CC1` [compound 520], under setting [5], the class was 2 (Class 2: The value of percent of control at 10^−7 M was from 40% to 60% or the value of IC′50 was from 50 nM to 200 nM.).

For `CCC(Oc1ccccc1)C(=O)NC[C@H]1CC[C@@H](Nc2nc3c(c(N(C)C)n2)CCCC3)CC1` (relative stereo) [compound 610], under setting [3], the class is 3 (Class 3 The value of percent of control at 10^−7 M was more than 60% or the value of IC50 was more than 200 nM.).

Take `CC(C(=O)N[C@H]1CC[C@@H](Nc2nc3c(c(N(C)C)n2)CCCC3)CC1)c1ccc(-c2ccccc2)c(F)c1` (relative stereo) [compound 984]: the class (activity class per percent of control at 10^-7 M or IC50) was 2 (Class 2: The value of percent of control at 10^−7 M was from 40% to 60% or the value of IC′50 was from 50 nM to 200 nM.).

As for `CN(C)c1nc(N[C@H]2CC[C@@H](CNCC=C(c3ccccc3)c3ccccc3)CC2)nc2c1CCCC2` [compound 1400], under setting [3], the class is listed as 1 (Class 1: The value of percent of control at 10^−7 M was less than 40% or the value of IC50 was less than 50 nM.).

Turning to `CN(C)c1nc(N[C@H]2CC[C@@H](NC(=O)NCc3ccc(F)cc3)CC2)nc2c1CCCC2` [compound 1725], under setting [3], the class was 2 (Class 2: The value of percent of control at 10^−7 M was from 40% to 60% or the value of IC′50 was from 50 nM to 200 nM.).

As to `COc1cc(C(=O)N[C@H]2CC[C@@H](Nc3cc(N(C)C)c4ccccc4n3)CC2)ccc1[N+](=O)[O-]` [compound 690, N-(cis-4-{[4-(dimethylamino)quinolin-2-yl]amino}cyclohexyl)-3-methoxy-4-nitrobenzamide], under setting [3], the class is given as 1 (Class 1: The value of percent of control at 10^−7 M was less than 40% or the value of IC50 was less than 50 nM.).

Take `COc1ccc(CN[C@H]2CC[C@@H](Nc3nccc(N(C)C)n3)CC2)c(OC)c1` [compound 1214]: under setting [3], the class was 3 (Class 3 The value of percent of control at 10^−7 M was more than 60% or the value of IC50 was more than 200 nM.).

Take `CN(C)c1nc(N[C@H]2CC[C@@H](CNC(=O)/C=C/c3ccccc3Cl)CC2)nc2c1CCCC2` [compound 669]: the class under setting [3] is recorded as 3 (Class 3 The value of percent of control at 10^−7 M was more than 60% or the value of IC50 was more than 200 nM.).

Consider `COc1ccc(C)cc1NC(=O)N[C@H]1CC[C@@H](Nc2nc3c(c(N(C)C)n2)CCCC3)CC1` [compound 1801], for which the class under setting [3] is given as 3 (Class 3 The value of percent of control at 10^−7 M was more than 60% or the value of IC50 was more than 200 nM.).

As to `Cc1cc(N(C)C)nc(N[C@H]2CC[C@@H](CNC(=O)c3ccc(OC(F)(F)F)cc3)CC2)n1` [compound 2760], the class under setting [4] is given as 3 (Class 3 The value of percent of control at 10^−7 M was more than 60% or the value of IC50 was more than 200 nM.).

Turning to `Cc1cc(NC(=O)N[C@H]2CC[C@@H](Nc3cc(N(C)C)c4ccccc4n3)CC2)c(C(F)(F)F)o1` [compound 2122], under setting [3], the class is on record as 3 (Class 3 The value of percent of control at 10^−7 M was more than 60% or the value of IC50 was more than 200 nM.).

On to `CN(C)c1nc(N[C@H]2CC[C@@H](CNC(=O)c3cccc(F)c3F)CC2)nc2c1CCCC2` [compound 663], for which the class under setting [3] is 3 (Class 3 The value of percent of control at 10^−7 M was more than 60% or the value of IC50 was more than 200 nM.).

As for `COC(=O)c1sccc1NC(=S)N[C@H]1CC[C@@H](Nc2cc(N(C)C)c3ccccc3n2)CC1` [compound 2312], the class under setting [1] is listed as 3 (Class 3 The value of percent of control at 10^−7 M was more than 60% or the value of IC50 was more than 200 nM.).

As to `CN(C)c1cc(NC2CCC(NCC3CCCCC3C(O)c3ccccc3)CC2)nc2ccccc12` (centres unmarked) [compound 1457], under setting [3], the class was 3 (Class 3 The value of percent of control at 10^−7 M was more than 60% or the value of IC50 was more than 200 nM.).

As for `CN(C)c1cc(N[C@H]2CC[C@@H](NC(=O)c3cccs3)CC2)nc2ccccc12` [compound 52], the class under setting [2] is 3 (Class 3 The value of percent of control at 10^−7 M was more than 60% or the value of IC50 was more than 200 nM.).

With `COc1ccc2[nH]cc(CNC[C@H]3CC[C@@H](Nc4nccc(N(C)C)n4)CC3)c2c1` [compound 1248], the class under setting [3] is recorded as 2 (Class 2: The value of percent of control at 10^−7 M was from 40% to 60% or the value of IC′50 was from 50 nM to 200 nM.).

Consider `Cc1ccc([N+](=O)[O-])c(NC(=O)NC[C@H]2CC[C@@H](Nc3cc(N(C)C)c4ccccc4n3)CC2)c1C` [compound 2397], for which, under setting [1], the class was 3 (Class 3 The value of percent of control at 10^−7 M was more than 60% or the value of IC50 was more than 200 nM.).

On to `CN(C)c1ccnc(N[C@H]2CC[C@@H](NC(=O)c3ccc(F)cc3)CC2)n1` [compound 255, N-(cis-4-{[4-(dimethylamino)pyrimidin-2-yl]amino}cyclohexyl)-4-fluorobenzamide], for which, under setting [3], the class is listed as 3 (Class 3 The value of percent of control at 10^−7 M was more than 60% or the value of IC50 was more than 200 nM.).
